Measured values from patent publication US20260191793A1, “HBV SPECIFIC EXOSOMES AND USES THEREOF” (priority 2022, published 2026).
Entries after “also recorded” stand apart in the source; their conditions may differ.

System: HBV DNA
Test: Mismatch sensitive T7 endonuclease 1 (T7E1) assay in HepDE19 cells
Format: cell-based, Hepatitis B virus (HBV)
Conditions: HepDE19 cells transfected for 3 days, T7E1 digestion of PCR products
Excerpt: DNA cleavage by CRISPR/Cas9 results in double-strand breaks (DSBs), which are repaired primarily by the non-homologous end-joining (NHEJ) pathway, resulting in indel mutations and transcriptionally active episomal variants. Thus, detecting DNA cleavage and indel mutations following CRISPR/Cas9-mediated DNA damage and repair is important for confirming its gene-editing effects. To validate the capability of the synthetic gRNA/Cas9 RNPs to introduce indel mutation and cleavage in HBV DNA in HepDE19 cells, a mismatch sensitive T7 endonuclease (T7E1) assay-was performed, following transfection of HepDE19 cells with gRNA5, gRNA9, gRNA5+gRNA9, or gRNAc RNPs. This assay allows for the detection of specific cleavage sites or indel mutations in the target gene (HBV DNA) in the treated cells. The indel mutagenesis was determined based on the DNA fragments detected after the gRNA/Cas9-mediated cleavage of the HBV DNA following T7E1 digestion of the specific PCR products.
The HBV DNA sequences surrounding gRNA-binding sites were amplified by PCR. […]
DNA cleavage by CRISPR/Cas9 results in double-strand breaks (DSBs), which are primarily repaired by the non-homologous end joining (NHEJ) repair pathway, resulting in gene mutations. […] The mutagenesis was determined based on the DNA fragments detected after the gRNA/Cas9-mediated cleavage of the HBV DNA following T7E1 digestion.

In the case of GGTCTCCATGCGACGTGCAGNGG [gRNA9], the “cleaved products / DSBs in HBV DNA after T7E1 treatment” value is reported as “cleaved products were observed; also recorded: DSBs were introduced”.
“GTTATCGCTGGATGTGTCTGNGG (guide GUUAUCGCUGGAUGUGUCUGNGG; complexed with Cas9 protein, chemistry not fully specified) [gRNA5, tested as synthetic gRNA/Cas9 RNP]” was tested, and the “cleaved products / DSBs in HBV DNA after T7E1 treatment” value was “cleaved products were observed; also recorded: DSBs were introduced”.
